Experimental data: patent US20140162974A1, “METHODS FOR MODULATION OF PHOSPHORUS AND FGF23” (Luitpold Pharmaceuticals, Inc., priority 2012, published 2014)

Legend:
[1] = system: C-terminal FGF23 (cFGF23); experiment: Example 3 trial: plasma C-terminal FGF23; type: in vivo, human; conditions: for effect on cFGF23 levels: in vivo; for lowering of cFGF23 levels within 24 hours: intravenous iron in iron deficient women; for C-terminal FGF23, Day 1 / C-terminal FGF23, Day 7 / C-terminal FGF23, Day 14 / C-terminal FGF23, Day 35: mean ± standard error, unit from the 3rd table
Procedure: Study visits were on Days 0 (when iron was infused), 1 (24 hours after iron infusion), 7, 14, and 35. The primary objectives were to determine the effect of iron deficiency on cFGF23 and iFGF23 levels and the effect of intravenous iron on iFGF23 and cFGF23 levels.
Randomization occurred centrally via a fax-based system. […] The complete dose was infused over 15 minutes on day 0. […] An initial test dose of 25 mg was administered slowly over 5 minutes.
Laboratory testing of blood and three-hour urine collections was performed at the screening visit and on study days 0 (when iron was infused), 1 (24 hours after iron infusion), 7, 14, and 35 (see e.g., FIG. 2A). Any subject who experienced a reduction in serum phosphate below the normal range after day 0 underwent additional phosphate measurements at 14 day intervals following day 35 until the level returned to the normal reference range. Safety evaluations of all subjects included ascertainment of adverse events, physical examinations at all study visits, and laboratory assessments. Any subject who withdrew from the study received a follow-up phone call to ascertain adverse events 30 days after they received study drug.
Blood and urine samples were sent to a central laboratory for analysis (Covance Central Laboratory Service, Indianapolis, Ind.). Hemoglobin, blood counts, iron indices, electrolytes, and serum and urinary phosphate and creatinine were measured with standard, automated, multi-analyte techniques. Urinary fractional excretion of phosphate (FEPi) was calculated from the three-hour, morning urine collections as urinary phosphate x serum creatinine/serum phosphate x urinary creatinine. Serum levels of 25-hydroxyvitamin D and 1,25-dihydroxyvitamin D were measured in duplicate by radioimmunoassay (DiaSorin, Stillwater, Minn.) with intra-assay coefficients of variation (CV)<11.6%. Plasma C-terminal FGF23 (cFGF23) was measured in duplicate in EDTA-plasma samples using a human FGF23 immunometric assay capable of detecting both the intact peptide and its C-terminal fragments (Immutopics, San Clemente, Ca) with intra-assay CV≦3.8%. Because cFGF23 testing was performed in parallel with rolling enrollment and follow-up, all cFGF23 assay plates tested combinations of baseline and post-intervention samples from multiple study participants. Serum intact FGF23 (iFGF23) was measured in batches of baseline and post-intervention samples from multiple study participants at study end using an immunometric assay that detects the intact peptide exclusively (Kyowa Medex Company, Shizuoka, Japan) with intra-assay CV<2.7%. Serum hepcidin levels were measured on days 0, 7, and 35 using an enzyme-linked immunosorbent assay (Intrinsic LifeSciences, La Jolla, Calif.) with intra-assay CV≦19%. Urinary amino acids, glucose, albumin, and beta 2 microglobulin were measured to test for the possibility of global proximal tubular dysfunction. Urinary deoxypyridinoline cross link, and serum osteocalcin and bone-specific alkaline phosphatase were measured to assess bone turnover.
Baseline characteristics are presented as mean±standard error for continuous variables and as proportions for categorical variables. The association between iron indices and baseline and change in FGF23 levels was assessed with Spearman correlations. Restricted maximum likelihood-based repeated measures analyses (linear mixed models) that considered the effects of treatment, visit, and treatment x time interaction, with baseline values treated as a fixed covariate were used for the primary analyses of mean changes from baseline in continuous markers of phosphate homeostasis. The models employed unstructured covariance structures without imputing missing values. All outcome variables that were not normally distributed were analyzed after natural log-transformation. […]

FGF-23 = experiment: VIT-30: FGF-23; type: in vivo, human
Source text: FIG. 1 is a line and scatter plot showing mean changes in phosphate (left vertical axis) or changes in FGF-23 (right vertical axis) with respect to baseline value at each study day (0, 7, 14, 28, or 56) as indicated on the Horizontal (X) axis for trial VIT30. […] Further details regarding methodology are provided in Example 2.
Study visits were on Days 0, 3, 7, 10, 14, 28, 56, and 120. A phone assessment occurred on Day 90.
For quantitative baseline characteristics, the association with FGF-23 at Screening was evaluated with Pearson product moment and Spearman correlations. For qualitative baseline characteristics, the association with FGF-23 at Screening was evaluated with mean differences in FGF-23 among categories of the baseline characteristic.
Descriptive statistics for FGF-23 at Screening (mean, median, standard deviation, quartiles, minimum, and maximum) were summarized for subgroups.

Substance | C-terminal FGF23, Change from baseline ([1]; Day 1) | C-terminal FGF23, Change from baseline ([1]; Day 7) | C-terminal FGF23, Change from baseline ([1]; Day 14) | C-terminal FGF23, Change from baseline ([1]; Day 35) | effect on cFGF23 levels [1] | lowering of cFGF23 levels within 24 hours [1] | C-terminal FGF23, Day 1 [1] | C-terminal FGF23, Day 7 [1] | C-terminal FGF23, Day 14 [1] | C-terminal FGF23, Day 35 [1] | cFGF23 in FCM subjects who did vs did not develop serum phosphate<2.0 mg/dL ([1]; stratified analysis) | changes in FGF-23 with respect to baseline (FIG. 1) (FGF-23; Days 7, 14, 28, 56, trial VIT30) | FGF 23 change from baseline to Day 56 within group (FGF-23; in vivo)
iron dextran [reference compound] | −82.5% | −85.6% | −87.3% | −80.0% | rapidly lowered | 80% | 152 ± 17.5 RU/mL | 114 ± 17.7 RU/mL | 107 ± 16.0 RU/mL | 170 ± 51.2 RU/mL | – | – | –
polynuclear iron (III)-hydroxide 4(R)-(poly-(1→4)-O-α-glucopyranosyl)-oxy-2(R),3(S),5(R),6-tetrahydroxy-hexanoate [FCM] | −78.6% | −80.9% | −77.5% | −78.9% | rapidly lowered | 80% | 177 ± 12.4 RU/mL | 165 ± 34.9 RU/mL | 170 ± 55.8 RU/mL | 182 ± 73.7 RU/mL | decreased similarly in both groups | almost always decreases with respect to baseline (except for FCM on Day 14) | statistically significant decrease
